Experimental data: patent US6479549B2, “Carnosic acid derivatives for promoting synthesis of nerve growth factor” (Nagase & Company, Ltd., priority 2000, dated 2002)

Key:
[1] = test system: Human glioblastoma cells (T98G cell line); assay: NGF content in culture supernatant of T98G cells (sandwich enzyme immunoassay); format: cell-based; settings: for NGF Content in sample solution: 100 uM effective ingredient in Opti-MEM medium, T98G cells, 4 days cultivation, mean ± standard deviation, comparative example (none) 6.3 ± 1.2; for Relative NGF content: 100 uM, ratio of NGF content in example solution to that in comparative example solution (=1.0)
Method: Human glioblastoma cells (T98G cell line) were seeded in a MEM medium containing fetal bovine serum (10%; Gibco), sodium pyruvate (x 1; Gibco) and nonessential amino acids (x 1; Gibco) in wells of a flat-bottom 96-well plate (Corning), in a cell density of 2×10^4/well, and cultivated in a CO2 incubator (37° C., 5% CO2) for 3 days. The medium was then replaced by an Opti-MEM medium (containing 5 mg/ml of bovine serum albumin). The cultivation was continued for further 6 days with replacing the medium at intervals of 3 days.
After removing the medium, an Opti-MEM medium (containing 5 mg/ml of bovine serum albumin) containing 100 uM (micromole) of carnosic acid diacetate obtained in Example 1 was added to each well in an amount of 50 ul (microliter)/well, and the cultivation was continued for further 4 days. After the cultivation, the supernatant was taken as a sample solution.
On the other hand, 1 ug/ml of an anti-NGF antibody (Promega) solution (50 ul) was added to each well of a 96-well microplate (Nunc), and the plate was allowed to stand overnight at 4° C. After washing the plate with PBS(-) (Nissui Pharmaceuticals), 1% of a bovine serum albumin (Sigma) solution (100 ul) was added to each well of the plate and the plate was allowed to stand at room temperature for 4 hrs to block the plate. […]
Subsequently, 0.4 unit/ml of a beta-galactosidase-labeled anti-NGF antibody (Boehringer Mannheim) solution (50 ul) was added to each well of the plate, and allowed to react at room temperature for one hour. […] The fluorescence intensity of 4-methylumbelliferone produced was measured on a fluorescence plate reader, and the content of NGF contained in the sample solution was determined using a standard curve obtained from a standard solution (human beta-NGF; PEPRO TECH EC).
The content of NGF contained in the sample solution was determined as described in Example 4, except that an Opti-MEM medium (containing 5 mg/ml of bovine serum albumin) containing 100 uM of carnosic acid diacetate methyl ester obtained in Example 2 was used in an amount of 50 ul/well, instead of carnosic acid diacetate.
The content of NGF contained in the sample solution was determined as described in Example 4, except that an Opti-MEM medium (containing 5 mg/ml of bovine serum albumin) containing 100 uM of carnosic acid methyl ester obtained in Example 3 was used inan amount of 50 ul/well, instead of carnosic acid diacetate.
The content of NGF contained in the sample solution was determined as described in Example 4, except that an Opti-MEM medium (containing 5 mg/ml of bovine serum albumin) not containing carnosic acid diacetate was used in an amount of 50 ul/well, instead of the Opti-MEM medium containing carnosic acid diacetate.

[2] = test system: Wistar male rats; assay: Ethanol-induced stomach ulcers in rats (ulcer index); format: in vivo; settings: 10 mg/kg body weight oral
Method: To Wistar male rats (5 rats per group) of 180-200 g body weight fasted for 24 hours before the start of a test, carnosic acid diacetate obtained in Example 1 was orally administered in a dose level of 10 mg per kg body weight, after suspending it in water. After 30 minutes of the administration, 1 ml of ethanol (99.5%) was orally administered to each rat. After one hour of the ethanol administration, laparotomy was carried out and the lengths of all ulcers developed in the stomach were measured arld added up. The total lengths of ulcers are taken as ulcer indexes.
The lengths of all ulcers developed in the stomach were measured and added up as described in Example 7, except that water containing carnosic acid methyl ester (10 mg per kg body weight) was used instead of water containing carnosic acid diacetate. The total lengths of ulcers are taken as ulcer indexes.
The lengths of all ulcers developed in the stomach were measured and added up as described in Example 7, except that water not containing carnosic acid diacetate was used instead of water containing carnosic acid diacetate. The total lengths of ulcers are taken as ulcer indexes.

Structure (SMILES)	NGF Content in sample solution [1]	Relative NGF content [1]	Ulcer index ([2]; 30 minutes before 1 ml ethanol (99.5%) oral, total length of stomach ulcers 1 hour after ethanol, mean ± standard deviation, comparative example 62.4)	Relative ulcer index ([2]; ratio of ulcer index in example to that in comparative example 2 (=100))
COC(=O)[C@@]12CCCC(C)(C)[C@H]1CCc1cc(C(C)C)c(OC(C)=O)c(OC(C)=O)c12 [Carnosic acid diacetate methyl ester, carnosic acid diacetate methyl ester]	50.6 ± 4.3 pg/mL	8.0	–	–
COC(=O)[C@]12CCCC(C)(C)C1CCc1cc(C(C)C)c(O)c(O)c12 (stereo partly drawn) [Carnosic acid methyl ester, carnosic acid methyl ester]	33.3 ± 2.8 pg/mL	5.3	33.6 ± 3.6 mm	53.8
